Read-outs that look alike come from different tables or passages of the source. Marks after values point to notes of the source that are not given here.
Key:
WT EGFR (Wild-Type EGFR) = target: T1, WT EGFR (Wild-Type EGFR) (Homo sapiens, UniProt P00533); assay: Inhibition of WT EGFR kinase activity (ADP-Glo); assay type: biochemical
T1 construct: purchased SignalChem
Procedure: (§1) To assess IC50 values of the compounds disclosed herein, a biochemical assay of inhibition of kinase activity in a non-cellular system and a functional cellular anti-proliferation assay were used.
(§2) To assess inhibition of WT EGFR (Wild-Type EGFR), DM EGFR (DoubleMutantEGFR, L828R/T790M) kinase activity, SignalChem kinase system and ADP-Glo™ Kinase Assay (V9102, Promega) detection kit were used.
(§3) The measurements were carried out in a 25 μL reaction volume using a 96-well plate. […] The solution of 0.5 mg/mL peptide substrate and 50 μM ATP in the same buffer were added; the solution was incubated for 180 minutes at 37° C. To detect the amount of ATP taken up during the kinase reaction, the ADP Glo Detection Kit (V9102, Promega) was used. The luminescence was measured with the Infinite M200Pro plate spectrophotometer (Tecan, Switzerland). IC50 values were calculated using Magellan 7.2 software (Tecan, Switzerland) approximating experimental points by four-parameter logistic model with the optimization by Levenberg-Marquardt (Table 14).

[1] = target: T2, DM EGFR (DoubleMutantEGFR, L828R/T790M) (Homo sapiens, UniProt P00533, L858R/T790M); assay: Inhibition of DM EGFR kinase activity (ADP-Glo); assay type: biochemical; conditions: for IC50: inhibition of kinase activity, EGFR DM (L828R/T790M); for SI, IC50(WT)/IC50(DM): selectivity index, kinase EGFR WT vs EGFR DM
T2 construct: purchased SignalChem
Procedure: as §1, §2, §3

[2] = Chemical stability in human blood plasma; assay type: in vitro ADME; conditions: pooled human blood plasma; 10 μm; 4 hours at 37° C.; substance amount remaining
Procedure: 2) Determination of chemical stability in human blood plasma.
Determination of stability in human blood plasma was performed using pooled human blood plasma taken from ten healthy donors. The initial candidate solution (10 mM in DMSO) was diluted with pooled blood plasma to a concentration of 10 μm (test solution). The test solution was incubated in a dry block thermostat for 4 hours at 37° C. HPLC with Agilent 1200 liquid chromatography system (Agilent, USA) was employed to determine peak areas of the compounds in test samples, said peak areas corresponding to the initial test time (prior to incubation) and the final test time (after incubation in a dry block thermostat for 4 hours at 37° C.), proteins were preliminarily precipitated with acetonitrile. We used gradient elution (1 mL/min flow rate). Substance amount in % in a sample after thermostatting was determined.
The stability of the compounds was estimated.

[3] = system: A549 (lung adenocarcinoma, WT); assay: Antiproliferative activity on A549 cells (Alamar Blue); assay type: cell-based; conditions: Homo sapiens, antiproliferative test
Procedure: (§4) Antiproliferative activity of EGFR inhibitors (Tables 15 and 16) was measured in cell-based bioassay on continuous epithelial cell cultures: A549 (lung adenocarcinoma, ATCC® CRM-CCL-185™—WT), HCC827 (lung adenocarcinoma, ATCC® CRL-2868™—SM (SingleMutantEGFR, exon19delE746-A750)) and H1975 (lung adenocarcinoma, ATCC® CRL-5908™—DM (DoubleMutantEGFR, L828R/T790M)) using cell viability reagent Alamar Blue (ThermoFisher, # DAL1100). Cells were cultured in 10% FBS-supplemented (Gibco, #16140071) RPMI-1640 (PanEco, S330p) for at least 1 passage after thawing, washed with PBS and passaged in 96-well culture plates (3599, Corning) with RPMI-1640 growth medium supplemented with 2% FBS in an amount of 5*10^3 cells/well for A549, 10*10^3 cells/well for HCC827 and 15*10^3 cells/well for H1975 in 100 μL, and incubated at 37° C. in an incubator (Thermo Forma, USA) under 5% of CO2 for 16-18 h for cell attachment.
(§5) The test compounds were dissolved in DMSO in the selected range of concentrations and transferred to RPMI-1640 medium (PanEco, S330p) supplemented with 2% FBS. After adding 50 μl of the prepared dilutions to the cells, the incubation mixture contained the final concentrations of the test substances and no more than 1% DMSO. The plates were Incubated at 37° C. for 72 h. After incubation, 15 μl of Alamar Blue vital dye (ThermoFisher, # DAL1100) was added to each well. The plates were shaken on an orbital shaker (Biosan, Latvia) and further incubated for 3-5 h in a CO2 incubator (Thermo Forma, USA). Number of living cells was estimated using a plate spectrophotometer Infinite M200Pro, (Tecan, Switzerland) measuring fluorescent signal at the excitation wavelength (λEx) of 540 nm and emission wavelength (λEm) of 590 nm.
IC50 was calculated using Magellan 7.2 software (Tecan, Switzerland) approximating experimental points by four-parameter logistic model with the optimization by Levenberg-Marquardt.
(§6) The ratio between IC50 for cell lines containing wild-type EGFR (A549) and IC50 for cell lines containing target mutation L828R/T790M (H1975) is the selectivity index (SI): […]

[4] = system: H1975 (lung adenocarcinoma, DM, L828R/T790M); assay: Antiproliferative activity on H1975 cells (Alamar Blue); assay type: cell-based; conditions: for IC50: Homo sapiens, NCI-H1975, H1975 cells; for SI IC50(A549)/IC50(DM): selectivity index, A549 vs H1975 cells
Procedure: as §4, §5
IC50 was calculated using Magellan 7.2 software (Tecan, Switzerland) approximating experimental points by four-parameter logistic model with the optimization by Levenberg-Marquardt. […]
as §6

[5] = General cytotoxicity on HepG2 cells; assay type: cell-based; conditions: human; general cytotoxicity, HepG2 cells, 72 hours, average of several tests
Procedure: (§7) The CC50 values were determined in the test for General cytotoxicity on HepG2 cells (rhepatocellular carcinoma, ATCC® HB-8065™) (Table 16). The cells were subcultured in DMEM medium (PanEco, S420p) supplemented with 10% FBS (Gibco, #16140071) for at least 1 passage after thawing, washed with PBS and passaged in 96-well culture plates (3599, Corning) at a concentration of 2*10^4 cells/100 μL per well, and incubated for 16-18 h. The test substances were titrated in DMSO and transferred to DMEM (PanEco, S420p) medium supplemented with 2% FBS, added to the cells and incubated at 37° C. for 72 hours; viability of the cells was then assessed using Alamar Blue dye (ThermoFisher, # DAL1100). CC50 was determined similarly to IC50.
(§8) The ratio between CC50 for HepG2 cell line and IC50 for H1975 cell line is the therapeutic index (TI): […]

HepG2 cells = assay: General cytotoxicity on HepG2 cells; assay type: cell-based; conditions: therapeutic index, CC50 HepG2 / IC50 H1975
Procedure: as §7, §8

[6] = antiproliferative test, Table 15, read-out: IC50 H1975 (DM)
[7] = average values obtained in several tests, Table 16, read-out: H1975 (DM) IC50

SMILES | IC50 (WT EGFR (Wild-Type EGFR)) [nM] | IC50 [1] [nM] | SI, IC50(WT)/IC50(DM) [1] | Stability in blood plasma, % [2] [%] | IC50 [3] [nM] | IC50 [4, 6] [nM] | IC50 [4, 7] [nM] | SI IC50(A549)/IC50(DM) [4] | CC50 at 72 h [5] [nM] | TI, CC50/IC50 (HepG2 cells)
C=CC(=O)Nc1cc(Nc2nccc(C(=O)c3ccc(N4CCCC4=O)cc3)n2)c(OC)cc1N(C)CCN(C)C [EGFR_3365_91] | 107 | 4.55 | 23.60 | 95.4 | 31600 | > 200 | – | <158 | – | –
C=CC(=O)Nc1cc(Nc2nccc(C(=O)c3ccc(OCCOC)cc3)n2)c(OC)cc1N(C)CCN(C)C [EGFR_3365_92, N-(2-((2-(dimethylamino)ethyl)(methyl)amino)-4-methoxy-5-((4-(4-(2-methoxyethoxy)benzoyl)pyrimidin-2-yl)amino)phenyl) acrylamide] | 133 | 7.57 | 17.56 | 99.1 | 22900 | 35.1 | – | 652 | – | –
C=CC(=O)Nc1cc(Nc2nccc(C(=O)c3ccc(N4CCC(C#N)CC4)cc3)n2)c(OC)cc1N(C)CCN(C)C [EGFR_3365_97, N-(5-((4-(4-(4-cyanopiperidin-1-yl)benzoyl)pyrimidin-2-yl)amino)-2-((2-(dimethylamino)ethyl)(methyl)amino)-4-methoxyphenyl)acrylamide] | 84.2 | 2.3 | 36.55 | 99.3 | 13800 | 22.9 | 22.9 | 601 | 21600 | 943
C=CC(=O)Nc1cc(Nc2nccc(C(=O)c3ccc(N4CCC[C@H](OC)C4)cc3)n2)c(OC)cc1N(C)CCN(C)C [EGFR_3365_110, (S)-N-(2-((2-(dimethylamino)ethyl)(methyl)amino)-4-methoxy-5-((4-(4-(3-methoxypiperidin-1-yl)benzoyl)pyrimidin-2-yl)amino)phenyl)acrylamide] | 97.7 | 2.32 | 42.20 | 95.7 | 9510 | 21.7 | 21.7 | 439 | 18500 | 855
C=CC(=O)Nc1cc(Nc2nccc(C(=O)c3ccc(N4CCC[C@@H](OC)C4)cc3)n2)c(OC)cc1N(C)CCN(C)C [EGFR_3365_111, (R)-N-(2-((2-(dimethylamino)ethyl)(methyl)amino)-4-methoxy-5-((4-(4-(3-methoxypiperidin-1-yl)benzoyl)pyrimidin-2-yl)amino)phenyl)acrylamide] | 186 | 2.33 | 79.88 | 100.0 | 11200 | 36.6 | 36.6 | 307 | 27100 | 742

Further compounds by falling IC50 (WT EGFR (Wild-Type EGFR)), results first:

IC50 (WT EGFR (Wild-Type EGFR)) [nM] | IC50 [1] [nM] | SI, IC50(WT)/IC50(DM) [1] | Stability in blood plasma, % [2] [%] | IC50 [3] [nM] | IC50 [4, 6] [nM] | IC50 [4, 7] [nM] | SMILES | SI IC50(A549)/IC50(DM) [4] | CC50 at 72 h [5] [nM] | TI, CC50/IC50 (HepG2 cells)
83.2 | 1.86 | 44.62 | 96.1 | 14500 | 13.7 | 13.7 | C=CC(=O)Nc1cc(Nc2nccc(C(=O)c3ccc(N4CCC(OC)CC4)cc3)n2)c(OC)cc1N(C)CCN(C)C [EGFR_3365_98, N-(2-((2-(dimethylamino)ethyl)(methyl)amino)-4-methoxy-5-((4-(4-(4-methoxypiperidin-1-yl)benzoyl)pyrimidin-2-yl)amino)phenyl)acrylamide] | 1065 | 24200 | 1770
35 | 1.75 | 19.99 | 86.0 | 11800 | 29.5 | 29.5 | C=CC(=O)Nc1cc(Nc2nccc(C(=O)c3ccc(OC4CC4)cc3)n2)c(OC)cc1N(C)CCN(C)C [EGFR_3365_116, N-(5-((4-(4-cyclopropoxybenzoyl)pyrimidin-2-yl)amino)-2-((2-(dimethylamino)ethyl)(methyl)amino)-4-methoxyphenyl)acrylamide] | 400 | 22100 | 749
24.5 | 2.96 | 8.29 | – | > 10000 | 8.45 | – | C=CC(=O)Nc1cc(Nc2nccc(C(=O)c3ccc(N4CCC(N(C)C)CC4)cc3OC)n2)c(OC)cc1N(C)CCN(C)C [EGFR_3365_127, N-(2-((2-(dimethylamino)ethyl)(methyl)amino)-5-((4-(4-(4-(dimethylamino)piperidin-1-yl)-2-methoxybenzoyl)pyrimidin-2-yl)amino)-4-methoxyphenyl)acrylamide] | >166** | – | –
19.8 | 1.86 | 10.62 | – | – | – | – | C=CC(=O)Nc1cc(Nc2nccc(C(=O)c3ccc(N4CCC(N)CC4)cc3OC)n2)c(OC)cc1N(C)CCN(C)C [EGFR_3365-126] | – | – | –
